Experimental data published in ChEMBL document CHEMBL1129292, “Theoretical study of inhibition of adenosine deaminase by (8R)-coformycin and (8R)-deoxycoformycin” (J Med Chem, 1996).

Target: T1, Adenosine deaminase (Homo sapiens, UniProt P00813)
T1 sequence (P00813 whole entry): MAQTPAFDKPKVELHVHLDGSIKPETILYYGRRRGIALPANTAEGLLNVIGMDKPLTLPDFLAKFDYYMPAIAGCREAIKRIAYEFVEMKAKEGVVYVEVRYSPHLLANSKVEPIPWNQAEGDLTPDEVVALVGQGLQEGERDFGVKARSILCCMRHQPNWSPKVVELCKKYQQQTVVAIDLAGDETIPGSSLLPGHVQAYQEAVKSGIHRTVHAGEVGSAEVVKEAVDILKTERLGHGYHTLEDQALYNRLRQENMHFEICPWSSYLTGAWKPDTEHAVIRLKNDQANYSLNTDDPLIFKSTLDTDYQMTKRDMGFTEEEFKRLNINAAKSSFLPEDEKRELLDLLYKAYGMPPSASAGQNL
Experiment: Binding affinity towards Adenosine deaminase

Structure (SMILES)	Ki
OCC1OC(n2cnc3c2N=CCC[C@H]3O)C[C@H]1O (single isomer, unassigned)	2.5 pM
OCC1OC(n2cnc3c2N=CCC[C@H]3O)[C@@H](O)[C@H]1O (single isomer, unassigned) [CONFORMYCIN]	10 pM
